# Measured values: ChEMBL document CHEMBL5113463, “Discovery and preclinical evaluations of JBD0131, a novel nitrodihydro-imidazooxazole anti-tuberculosis agent” (Bioorg Med Chem Lett, 2022)
# Columns and labels:
# [1] = target: Cytochrome P450 2C19 (Homo sapiens, UniProt P33261); assay: Inhibition of CYP2C19 (unknown origin); type: ADME
# [2] = Metabolic stability in rat liver microsomes assessed as half life; type: ADME, Microsome
# [3] = Metabolic stability in dog liver microsomes assessed as half life; type: ADME, Canis lupus familiaris, Microsome
# [4] = target: Voltage-dependent L-type calcium channel subunit alpha-1C (Homo sapiens, UniProt Q13936); assay: Inhibition of human Cav1.2
# Sequence of Voltage-dependent L-type calcium channel subunit alpha-1C (Q13936 whole entry): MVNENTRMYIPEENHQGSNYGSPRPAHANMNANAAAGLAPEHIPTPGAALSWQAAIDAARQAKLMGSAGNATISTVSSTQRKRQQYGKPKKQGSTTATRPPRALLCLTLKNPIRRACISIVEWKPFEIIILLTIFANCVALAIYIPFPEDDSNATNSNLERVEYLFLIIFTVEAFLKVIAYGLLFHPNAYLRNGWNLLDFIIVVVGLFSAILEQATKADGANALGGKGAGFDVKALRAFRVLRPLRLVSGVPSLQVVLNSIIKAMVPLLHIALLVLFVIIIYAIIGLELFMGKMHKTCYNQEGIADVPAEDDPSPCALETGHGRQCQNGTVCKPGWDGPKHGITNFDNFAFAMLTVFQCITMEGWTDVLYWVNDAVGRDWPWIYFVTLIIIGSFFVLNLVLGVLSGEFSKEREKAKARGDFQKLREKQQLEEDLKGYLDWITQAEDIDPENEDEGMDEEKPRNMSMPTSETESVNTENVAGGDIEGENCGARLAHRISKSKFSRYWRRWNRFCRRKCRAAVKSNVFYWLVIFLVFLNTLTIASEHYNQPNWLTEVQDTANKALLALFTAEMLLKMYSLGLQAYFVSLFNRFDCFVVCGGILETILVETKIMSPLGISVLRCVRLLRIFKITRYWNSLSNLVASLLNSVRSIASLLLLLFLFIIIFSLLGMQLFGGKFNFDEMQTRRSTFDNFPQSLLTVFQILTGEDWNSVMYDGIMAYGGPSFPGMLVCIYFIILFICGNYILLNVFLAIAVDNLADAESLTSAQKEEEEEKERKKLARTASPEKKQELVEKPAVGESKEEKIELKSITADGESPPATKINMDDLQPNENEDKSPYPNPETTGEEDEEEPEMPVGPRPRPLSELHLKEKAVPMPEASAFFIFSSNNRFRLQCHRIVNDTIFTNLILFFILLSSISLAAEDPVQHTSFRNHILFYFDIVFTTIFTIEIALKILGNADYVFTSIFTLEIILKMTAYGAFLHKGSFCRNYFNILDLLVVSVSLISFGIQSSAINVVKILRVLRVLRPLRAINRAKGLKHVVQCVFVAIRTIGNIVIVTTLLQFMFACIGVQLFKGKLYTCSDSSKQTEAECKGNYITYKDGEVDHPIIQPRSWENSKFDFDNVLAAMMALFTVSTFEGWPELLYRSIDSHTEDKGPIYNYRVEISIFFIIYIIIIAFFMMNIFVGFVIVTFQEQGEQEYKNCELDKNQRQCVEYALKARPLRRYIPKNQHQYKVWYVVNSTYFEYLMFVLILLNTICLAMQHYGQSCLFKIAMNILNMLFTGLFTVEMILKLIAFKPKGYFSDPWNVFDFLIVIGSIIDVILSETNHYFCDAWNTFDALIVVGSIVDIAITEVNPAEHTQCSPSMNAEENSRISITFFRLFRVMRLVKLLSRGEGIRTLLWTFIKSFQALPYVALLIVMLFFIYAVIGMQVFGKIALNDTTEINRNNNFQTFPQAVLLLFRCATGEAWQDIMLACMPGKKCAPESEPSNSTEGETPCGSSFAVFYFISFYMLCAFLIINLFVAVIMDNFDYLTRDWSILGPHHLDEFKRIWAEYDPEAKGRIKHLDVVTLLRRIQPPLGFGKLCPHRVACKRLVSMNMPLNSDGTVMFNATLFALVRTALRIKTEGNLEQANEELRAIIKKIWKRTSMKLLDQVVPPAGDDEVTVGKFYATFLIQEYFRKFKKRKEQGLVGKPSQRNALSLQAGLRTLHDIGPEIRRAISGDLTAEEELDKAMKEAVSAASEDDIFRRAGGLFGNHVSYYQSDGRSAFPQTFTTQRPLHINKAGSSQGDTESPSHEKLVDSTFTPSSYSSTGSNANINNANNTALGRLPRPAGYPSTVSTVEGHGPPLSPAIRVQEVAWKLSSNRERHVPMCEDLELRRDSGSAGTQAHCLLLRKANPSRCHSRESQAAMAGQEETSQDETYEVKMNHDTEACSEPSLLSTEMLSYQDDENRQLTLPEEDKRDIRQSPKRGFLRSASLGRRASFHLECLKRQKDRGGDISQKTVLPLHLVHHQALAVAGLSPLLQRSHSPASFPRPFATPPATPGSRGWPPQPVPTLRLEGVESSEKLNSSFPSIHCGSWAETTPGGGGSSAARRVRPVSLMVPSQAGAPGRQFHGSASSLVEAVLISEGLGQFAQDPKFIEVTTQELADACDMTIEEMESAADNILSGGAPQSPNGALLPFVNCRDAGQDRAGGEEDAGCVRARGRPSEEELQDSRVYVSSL
# [5] = target: Sodium channel protein type 5 subunit alpha (Homo sapiens, UniProt Q14524); assay: Inhibition of NaV 1.5 (unknown origin)
# Sequence of Sodium channel protein type 5 subunit alpha (Q14524 whole entry): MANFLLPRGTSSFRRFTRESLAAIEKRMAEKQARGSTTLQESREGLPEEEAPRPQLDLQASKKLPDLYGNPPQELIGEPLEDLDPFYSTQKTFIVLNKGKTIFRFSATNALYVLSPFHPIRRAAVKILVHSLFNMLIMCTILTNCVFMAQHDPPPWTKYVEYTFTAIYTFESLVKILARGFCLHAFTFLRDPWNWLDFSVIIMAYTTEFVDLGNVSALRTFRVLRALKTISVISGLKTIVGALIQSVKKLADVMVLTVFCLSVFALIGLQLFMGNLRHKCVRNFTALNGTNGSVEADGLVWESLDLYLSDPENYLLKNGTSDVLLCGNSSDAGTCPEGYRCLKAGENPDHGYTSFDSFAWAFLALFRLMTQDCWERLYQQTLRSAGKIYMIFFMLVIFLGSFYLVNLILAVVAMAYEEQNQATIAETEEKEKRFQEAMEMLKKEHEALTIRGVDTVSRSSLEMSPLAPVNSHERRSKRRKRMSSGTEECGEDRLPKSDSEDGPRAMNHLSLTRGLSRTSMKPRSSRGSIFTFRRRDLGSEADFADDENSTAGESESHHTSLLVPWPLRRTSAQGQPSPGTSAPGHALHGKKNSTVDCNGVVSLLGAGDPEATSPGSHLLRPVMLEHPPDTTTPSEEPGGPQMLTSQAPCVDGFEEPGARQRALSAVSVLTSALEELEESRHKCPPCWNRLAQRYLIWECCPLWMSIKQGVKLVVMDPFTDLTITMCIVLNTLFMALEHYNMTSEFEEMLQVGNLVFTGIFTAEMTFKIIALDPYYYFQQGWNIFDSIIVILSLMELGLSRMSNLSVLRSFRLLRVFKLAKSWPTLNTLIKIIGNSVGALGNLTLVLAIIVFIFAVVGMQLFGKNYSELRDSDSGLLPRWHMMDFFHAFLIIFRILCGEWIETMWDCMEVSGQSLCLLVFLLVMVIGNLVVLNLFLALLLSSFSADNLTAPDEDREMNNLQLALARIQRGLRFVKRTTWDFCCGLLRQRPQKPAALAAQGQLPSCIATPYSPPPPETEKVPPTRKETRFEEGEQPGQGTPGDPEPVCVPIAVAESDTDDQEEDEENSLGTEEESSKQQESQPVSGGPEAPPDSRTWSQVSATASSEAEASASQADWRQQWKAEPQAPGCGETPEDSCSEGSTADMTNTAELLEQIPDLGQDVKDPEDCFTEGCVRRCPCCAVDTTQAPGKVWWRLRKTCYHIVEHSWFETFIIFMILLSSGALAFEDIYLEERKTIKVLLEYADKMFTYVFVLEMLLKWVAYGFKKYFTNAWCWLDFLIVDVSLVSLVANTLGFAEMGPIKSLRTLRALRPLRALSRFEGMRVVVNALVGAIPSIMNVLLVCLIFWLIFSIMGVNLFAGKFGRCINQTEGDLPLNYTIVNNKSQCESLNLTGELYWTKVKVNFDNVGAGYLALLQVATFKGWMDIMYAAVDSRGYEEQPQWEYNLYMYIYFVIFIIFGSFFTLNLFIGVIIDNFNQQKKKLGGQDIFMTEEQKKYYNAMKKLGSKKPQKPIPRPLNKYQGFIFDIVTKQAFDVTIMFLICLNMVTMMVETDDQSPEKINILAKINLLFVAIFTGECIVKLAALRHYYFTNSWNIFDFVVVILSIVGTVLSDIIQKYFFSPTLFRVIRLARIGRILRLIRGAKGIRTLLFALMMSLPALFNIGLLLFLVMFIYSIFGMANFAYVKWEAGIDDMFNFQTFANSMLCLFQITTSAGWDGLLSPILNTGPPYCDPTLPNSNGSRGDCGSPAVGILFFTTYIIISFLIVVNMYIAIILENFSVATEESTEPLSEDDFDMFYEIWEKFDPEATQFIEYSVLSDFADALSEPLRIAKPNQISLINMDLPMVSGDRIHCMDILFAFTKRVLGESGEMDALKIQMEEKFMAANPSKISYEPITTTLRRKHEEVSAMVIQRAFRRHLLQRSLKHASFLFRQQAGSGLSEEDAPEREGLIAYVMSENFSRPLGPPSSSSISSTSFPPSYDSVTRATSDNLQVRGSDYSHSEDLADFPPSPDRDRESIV
# [6] = Half life in Sprague-Dawley rat at 1 mg/kg, iv; type: ADME, organism-based; settings: in vivo
# [7] = Cytotoxicity against African green monkey vero cells assessed as reduction in cell viability; type: toxicity, cell-based; settings: chlorocebus sabaeus
# [8] = Apparent permeability across basolateral to apical side in dog MDCK cells; type: ADME, cell-based, Canis lupus familiaris
# [9] = Aqueous solubility of compound at pH 7.4; type: physicochemical; settings: buffer
# [10] = Volume of distribution in Sprague-Dawley rat at 1 mg/kg, iv; type: ADME, organism-based; settings: in vivo
# [11] = Drug distribution in Sprague-Dawley rat lung at 10 mg/kg, po administered as C14-lableled compound and assessed as radioactivity; type: ADME, organism-based; settings: in vivo
# [12] = target: T1, A-type voltage-gated potassium channel KCND3 (Homo sapiens, UniProt Q9UK17); assay: Inhibition of Kv4.3 (unknown origin)
# T1 sequence (Q9UK17 whole entry): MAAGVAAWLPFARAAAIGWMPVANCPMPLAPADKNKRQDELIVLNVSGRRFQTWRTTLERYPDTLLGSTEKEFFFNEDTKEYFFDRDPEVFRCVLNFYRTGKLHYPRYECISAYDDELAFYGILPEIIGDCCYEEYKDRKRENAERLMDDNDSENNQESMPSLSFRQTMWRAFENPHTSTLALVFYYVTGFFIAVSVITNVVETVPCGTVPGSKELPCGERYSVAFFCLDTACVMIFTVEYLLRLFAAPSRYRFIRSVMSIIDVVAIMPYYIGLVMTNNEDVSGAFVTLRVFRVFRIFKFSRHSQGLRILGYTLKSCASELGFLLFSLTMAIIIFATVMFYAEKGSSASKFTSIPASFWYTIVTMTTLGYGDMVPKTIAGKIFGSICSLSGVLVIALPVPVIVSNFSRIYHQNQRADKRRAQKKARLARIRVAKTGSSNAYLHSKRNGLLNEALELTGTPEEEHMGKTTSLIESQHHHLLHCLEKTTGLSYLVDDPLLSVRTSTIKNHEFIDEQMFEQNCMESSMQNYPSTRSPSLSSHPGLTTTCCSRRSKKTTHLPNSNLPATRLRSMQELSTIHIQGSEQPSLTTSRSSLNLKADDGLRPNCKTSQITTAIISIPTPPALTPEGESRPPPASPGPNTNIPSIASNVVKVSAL
# [13] = test system: Mycobacterium tuberculosis; assay: In vivo antimycobacterial activity against Mycobacterium tuberculosis Erdman infected mouse acute tuberculosis infection model assessed as reduction lung bacterial loads by measuring CFU at 10 to 100 mg/kg for 3 weeks at 5 days/week; type: functional, organism-based; settings: dose 10-100 mg/kg, DDE = dose-dependent effect
# [14] = Plasma protein binding in rat assessed as bound fraction; type: ADME, cell-free; settings: read-out: PPB (converted)
# [15] = Drug distribution in Sprague-Dawley rat kidney at 10 mg/kg, po administered as C14-lableled compound and assessed as radioactivity; type: ADME, organism-based; settings: in vivo
# [16] = test system: Mycobacterium tuberculosis; assay: Antimycobacterial activity against Mycobacterium tuberculosis Erdman assessed as bacterial growth inhibition; type: functional
# [17] = Half life in Beagle dog at 0.5 mg/kg, iv; type: ADME, organism-based, Canis lupus familiaris; settings: in vivo
# [18] = Apparent permeability across apical to basolateral side in dog MDCK cells; type: ADME, cell-based, Canis lupus familiaris
# [19] = test system: Mycobacterium tuberculosis; assay: Antimycobacterial activity against Mycobacterium tuberculosis H37Rv assessed as bacterial growth inhibition incubated for 10 days under hypoxic condition followed by 28 hrs incubation under normoxic condition by Low-Oxygen-Recovery Assay; type: functional; settings: 264 h, time 11 day
# [20] = Oral bioavailability in CD-1 mouse at 5 mg/kg; type: ADME, organism-based; settings: mouse, in vivo, po, 5 mg/kg
# [21] = Plasma protein binding in human assessed as bound fraction; type: ADME, cell-free; settings: read-out: PPB (converted)
# [22] = Metabolic stability in cynomolgus monkey liver microsomes assessed as half life; type: ADME, Macaca fascicularis, Microsome
# [23] = Cmax in Sprague-Dawley rat at 4 mg/kg, po; type: ADME, organism-based; set-up: dose 4 mg/kg, route po; settings: in vivo
# [24] = Oral bioavailability in Sprague-Dawley rat at 4 mg/kg; type: ADME, organism-based; settings: in vivo
# [25] = Oral bioavailability in Beagle dog at 2 mg/kg; type: ADME, organism-based, Canis lupus familiaris; settings: in vivo
# [26] = AUC (0-last) in Sprague-Dawley rat at 4 mg/kg, po; type: ADME, organism-based; settings: in vivo
# [27] = test system: Mycobacterium tuberculosis; assay: Antimycobacterial activity against clinical isolate drug susceptible Mycobacterium tuberculosis H37Rv assessed as bacterial growth inhibition; type: functional
# [28] = Volume of distribution in Beagle dog at 0.5 mg/kg, iv; type: ADME, organism-based, Canis lupus familiaris; settings: in vivo
# Sequence of Cytochrome P450 2C19 (P33261 whole entry): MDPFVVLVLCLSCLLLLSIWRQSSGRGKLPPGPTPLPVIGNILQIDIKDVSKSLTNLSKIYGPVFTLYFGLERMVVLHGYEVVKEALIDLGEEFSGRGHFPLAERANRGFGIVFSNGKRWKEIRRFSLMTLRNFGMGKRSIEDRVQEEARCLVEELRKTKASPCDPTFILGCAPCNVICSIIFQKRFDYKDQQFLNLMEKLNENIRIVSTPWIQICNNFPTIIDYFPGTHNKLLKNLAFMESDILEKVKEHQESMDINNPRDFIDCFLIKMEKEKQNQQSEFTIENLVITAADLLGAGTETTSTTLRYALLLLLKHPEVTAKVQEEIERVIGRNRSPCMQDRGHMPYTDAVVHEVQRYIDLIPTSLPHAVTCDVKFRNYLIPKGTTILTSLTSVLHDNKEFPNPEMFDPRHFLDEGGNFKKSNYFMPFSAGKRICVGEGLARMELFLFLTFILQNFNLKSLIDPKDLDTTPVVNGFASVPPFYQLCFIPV
smiles,measurement,setting,value
C[C@]1(CN2Cc3nc(-c4ccc(F)cc4)sc3C2)CN=C(N)O1,IC50,[1],> 100 µM
same,half-life,[2],68 min
same,half-life,[3],151 min
same,IC50,[4],> 13.3 µM
same,IC50,[5],> 13.3 µM
same,half-life,[6],167 min
same,CC50,[7],> 32 µg/mL
same,Papp B→A,[8],15.8 ×10⁻⁶ cm/s
same,solubility,[9],13.5 µM
same,Vd,[10],5.56 L/kg
same,Drug uptake,[11],Active
same,IC50,[12],> 13.3 µM
same,Activity,[13],Dde
same,fraction unbound,[14],0.055
same,Drug uptake,[15],Active
same,MIC,[16],0.109 µg/mL
same,half-life,[17],362 min
same,Papp A→B,[18],20.9 ×10⁻⁶ cm/s
same,MIC,[19],5.63 µg/mL
same,F,[20],31.2%
same,fraction unbound,[21],0.018
same,half-life,[22],75 min
same,Cmax,[23],526 nM
same,bioavailability,[24],66.9%
same,bioavailability,[25],26.4%
same,AUClast,[26],4520 ng·h
same,MIC50,[27],0.012 µg/mL
same,MIC90,[27],0.03 µg/mL
same,Vd,[28],4.52 L/kg
